Data as given in article PMC11182235 (Frontiers in Ophthalmology, 2023).
“Also recorded” adds a separate entry of the source. Read-outs that look alike come from different tables or passages of the source.

Key:
[1] = test system: adult porcine RGCs; details: cited from earlier work
[2] = test system: isolated rat RGCs; details: cited from earlier work
[3] = test system: isolated retinal ganglion cells; type: cell-based, porcine
[4] = test system: isolated retinal ganglion cells; details: cited from earlier work
[5] = test system: RGC; details: in vivo; cited from earlier work
[6] = biological target: α7 nAChR (Sus scrofa, UniProt F1SNR6); assay: biochemical; type: binding, porcine
[7] = biological target: α4 nAChR (Sus scrofa, UniProt A0A286ZKF4+A0A287BFD8); type: binding, porcine; details: for Ki: read-out: Mean Ki against [3H]-cytisine
[8] = biological target: α3 nAChR (Sus scrofa, UniProt A0A287A7Z4); type: binding, porcine; details: read-out: Mean Ki against [3H]-epibatidine
[9] = test system: retinal ganglion cells; type: cell-based, rat
[10] = biological target: α4β2 nicotinic receptors; details: cited from earlier work
[11] = biological target: α7 nicotinic receptors; details: cited from earlier work
[12] = test system: α7 nAChRs; details: cited from earlier work
[13] = biological target: α3β4 receptors; details: cited from earlier work
[14] = rat retinal slice, RGCs, fluo-4 fluorescence, n = 4

α4 nAChR, sequence (A0A286ZKF4 31-595 limits assumed): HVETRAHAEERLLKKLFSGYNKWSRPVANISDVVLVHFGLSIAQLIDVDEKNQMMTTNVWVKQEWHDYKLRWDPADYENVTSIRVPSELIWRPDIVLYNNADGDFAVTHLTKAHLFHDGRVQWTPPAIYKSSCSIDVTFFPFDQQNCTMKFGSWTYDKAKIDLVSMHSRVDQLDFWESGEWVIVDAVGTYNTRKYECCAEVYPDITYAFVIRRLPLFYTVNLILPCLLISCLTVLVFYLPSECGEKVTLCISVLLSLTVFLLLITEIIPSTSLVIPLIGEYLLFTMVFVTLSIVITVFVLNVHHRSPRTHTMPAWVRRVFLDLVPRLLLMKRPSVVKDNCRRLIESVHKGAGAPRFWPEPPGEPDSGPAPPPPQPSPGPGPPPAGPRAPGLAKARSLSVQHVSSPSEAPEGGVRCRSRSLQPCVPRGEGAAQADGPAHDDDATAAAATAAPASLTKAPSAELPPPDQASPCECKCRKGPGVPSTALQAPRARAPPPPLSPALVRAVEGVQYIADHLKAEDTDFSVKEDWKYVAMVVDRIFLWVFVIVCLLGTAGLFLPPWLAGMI
α4 nAChR, sequence (A0A287BFD8 26-502 limits assumed): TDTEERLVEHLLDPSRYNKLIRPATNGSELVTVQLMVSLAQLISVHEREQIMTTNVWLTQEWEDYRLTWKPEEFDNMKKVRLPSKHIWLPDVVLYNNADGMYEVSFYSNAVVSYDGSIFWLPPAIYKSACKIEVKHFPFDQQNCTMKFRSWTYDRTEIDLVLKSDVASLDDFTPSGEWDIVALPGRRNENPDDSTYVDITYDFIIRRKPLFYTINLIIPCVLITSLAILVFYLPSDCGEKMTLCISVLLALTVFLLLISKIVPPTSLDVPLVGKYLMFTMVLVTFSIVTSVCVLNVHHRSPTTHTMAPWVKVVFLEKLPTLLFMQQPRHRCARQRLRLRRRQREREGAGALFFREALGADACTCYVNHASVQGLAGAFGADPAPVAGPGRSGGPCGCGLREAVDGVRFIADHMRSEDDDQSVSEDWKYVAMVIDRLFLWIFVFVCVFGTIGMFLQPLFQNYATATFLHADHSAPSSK
α7 nAChR, sequence (F1SNR6 20-499 limits assumed): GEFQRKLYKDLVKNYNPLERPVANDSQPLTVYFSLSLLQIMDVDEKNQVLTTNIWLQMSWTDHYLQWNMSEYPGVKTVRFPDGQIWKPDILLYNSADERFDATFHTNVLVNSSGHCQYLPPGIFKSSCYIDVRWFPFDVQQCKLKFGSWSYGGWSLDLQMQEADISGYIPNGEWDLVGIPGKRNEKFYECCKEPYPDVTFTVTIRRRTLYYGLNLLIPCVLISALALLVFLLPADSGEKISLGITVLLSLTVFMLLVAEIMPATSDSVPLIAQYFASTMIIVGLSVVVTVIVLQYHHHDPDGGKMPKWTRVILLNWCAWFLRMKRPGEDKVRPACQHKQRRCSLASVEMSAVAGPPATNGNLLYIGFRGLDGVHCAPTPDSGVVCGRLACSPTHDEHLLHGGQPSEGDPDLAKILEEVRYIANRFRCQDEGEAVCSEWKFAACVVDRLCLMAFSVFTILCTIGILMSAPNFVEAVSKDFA
α3 nAChR, sequence (A0A287A7Z4 30-503 limits assumed): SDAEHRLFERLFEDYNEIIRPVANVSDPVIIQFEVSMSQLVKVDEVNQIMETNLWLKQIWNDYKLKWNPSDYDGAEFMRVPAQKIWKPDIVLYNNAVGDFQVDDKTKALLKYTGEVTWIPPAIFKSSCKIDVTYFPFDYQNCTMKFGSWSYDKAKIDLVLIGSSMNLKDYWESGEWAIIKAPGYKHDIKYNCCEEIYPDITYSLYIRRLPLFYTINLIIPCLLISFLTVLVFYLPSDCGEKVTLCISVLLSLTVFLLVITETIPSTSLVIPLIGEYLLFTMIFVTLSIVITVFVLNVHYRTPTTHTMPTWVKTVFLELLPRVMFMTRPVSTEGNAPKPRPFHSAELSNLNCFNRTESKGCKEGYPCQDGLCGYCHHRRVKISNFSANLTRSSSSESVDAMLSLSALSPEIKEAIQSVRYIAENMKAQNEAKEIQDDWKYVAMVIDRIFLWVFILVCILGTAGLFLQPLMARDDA

## CC(=O)OCC[N+](C)(C)C [ACh, acetylcholine]
[1]
  Reduction of glutamate-induced excitotoxicity: significantly reduced

## CCN1C[C@]2(COC(=O)c3ccccc3N3C(=O)C[C@H](C)C3=O)CC[C@H](OC)[C@@]34[C@@H]5C[C@H]6[C@H](OC)[C@@H]5[C@](O)(C[C@@H]6OC)[C@@](O)([C@@H](OC)[C@H]23)[C@@H]14 [MLA, Methyllycaconitine]
[2]
  Block of neuroprotective effect of 100 nM PNU-282987 against glutamate-induced toxicity: blocked; also recorded: inhibited the protective effects

## O=C(N[C@H]1CN2CCC1CC2)c1ccc(Cl)cc1 [PNU-282987]
[3]
  Neuroprotection against glutamate-induced excitotoxicity: effective in the low-to-mid nanomolar concentration range
[4]
  Cell numbers in porcine retinal cell culture relative to control: increased numbers of cells
[2]
  Cell numbers in isolated rat RGC culture relative to control: increased numbers of cells
[5]
  RGC cell numbers in the intact rat: increase in RGC cell numbers

## C[N+](C)(C)CCO [choline]
[1]
  Reduction of glutamate-induced excitotoxicity: significantly reduced

## Clc1ccc(C2CC3CCC2N3)cn1 (centres unmarked) [epibatidine]
[6]; read-out: Percent inhibition of [125I]-α-BTX binding
  inhibition at 100 µM: 3%
[7]
  Ki: 0.1 ± 0.03 nM
[8]
  Ki: 0.7 ± 0.05 nM
[9]
  Threshold dose, calcium response: 1 nM
[10]
  Ki: 0.02 nM
[11]
  Ki: 233 nM

## CN1CCC[C@H]1c1cccnc1 [nicotine]
[6]
  Ki: 300000 ± 22000 nM
[7]
  Ki: 20 ± 0.7 nM
[8]
  Ki: 220 ± 0.6 nM
[9]; [14]
  Saturating dose, calcium response: 20 µM
  Threshold dose, calcium response: 2000 nM
[3]; additional preliminary and published experiments ([47])
  Protection against glutamate-induced excitotoxicity at higher levels: drop-off in protection at higher levels
[1]
  Concentration at which toxicity reported: 50 µM
  Reduction of glutamate-induced excitotoxicity: significantly reduced

## α-Bungarotoxin [α-BTX]
[6]; read-out: Mean Ki against [125I]-α-BTX
  Ki: 170 ± 40 nM
[7]; 0.1 µM
  Percent inhibition of [3H]-cytisine binding: 3% ± 3
[3]
  Effect of antagonist on neuroprotection by PNU-282987: reduction in the neuroprotective effects
[12]
  IC50: 1.6 nM
[13]
  IC50: > 3000 nM
